Reference: publication PMC9515143, “Phosphorylation of Jhd2 by the Ras-cAMP-PKA(Tpk2) pathway regulates histone modifications and autophagy” (Nature Communications, 2022)
Where a SMILES comes first, the peptide text is derived from it. The star is where a group is joined. Cbz = O=C(OCc1ccccc1)*

Assays:
[1] = system: H3K4me3; assay: Western blot of H3K4me3 in yeast cells treated with glucose, 2-DG, FBP or pyruvate; format: cell-based, budding yeast (Saccharomyces cerevisiae); settings: for H3K4me3 level after FBP or pyruvate treatment: spheroplasts (Zymolase), different concentrations of FBP or pyruvate, 3 hr
From the text: To examine the effect of glucose on histone modifications, we grew yeast cells in 2% glucose-containing medium (YPD) until log phase. Cells were collected and then grown in the medium containing different concentrations of glucose for 0.5 hr.
PKA is activated by cyclic AMP (cAMP), which binds to its inhibitory subunit, Bcy1 and causes its dissociation (Fig. 1g). We thus examined H3K4me3 in deletion mutants of cAMP phosphodiesterases PDE1 and PDE2, which encode enzymes to hydrolyze cAMP and inactivate PKA[39],[40]. […] To test whether the Ras-cAMP-PKA pathway mediates glucose-induced H3K4me3, we examined H3K4me3 in ras1Δ and ras2Δ mutants. […] Ras1/2 can be activated by glycolysis-derived fructose-1,6-biphosphate (FBP) via Cdc25[6] (Fig. 1g).
To examine the effect of glucose on histone modifications, yeast cells were grown in 2% glucose-containing YPD (Yeast Extract Peptone Dextrose) medium until OD600 of 0.7–1.0. Cells were then collected, washed and resuspended in YP medium for 3 hr followed by treatment with different concentrations of glucose for 0.5 hr. For 1NM-PP1 (MCE, HY-13804) treatment, cells were grown in 2% YPD until OD600 of 0.7–1.0. Cells were then treated with 25 μM 1NM-PP1 for 0.5 hr. For FBP and pyruvate treatment, cells were pre-treated with Zymolase (Mpbio, 08320921) to increase the permeability. In brief, cells were grown in YPD medium until OD600 of 0.7–1.0, centrifuged and resuspended in 1 ml SB buffer (100 mM Sorbitol, 20 mM Tris pH 7.4). 10 μl Zymolase was then added and incubated at 30 °C for 15 min. The spheroplasts were washed and cultured in YPD medium containing different concentrations of FBP and pyruvate for 3 hr.
(§1) Cells were grown in 5 ml YPD or selective medium until OD600 of 0.7–1.0. Cells were harvested and lysed in alkaline lysis buffer (2 M NaOH, 8% 2-mercaptoethanol). After centrifugation, the protein pellet was resuspended in 150 μl 2×SDS-sample buffer. Protein samples were separated by 8–15% SDS-PAGE and transferred to PVDF membrane. The blots were probed with primary antibodies followed by incubation with horseradish peroxidase-labelled IgG secondary antibodies. The protein bands were visualized using the ECL Chemiluminescence Detection Kit (Bio-Rad, 170–5061) and quantified with Image J software (v.1.8.0).

[2] = target: T1, WT Jhd2 (Saccharomyces cerevisiae, UniProt P47156); assay: Jhd2 protein level in WT Jhd2 cells with MG132; format: cell-based, budding yeast (Saccharomyces cerevisiae); settings: for Jhd2/GAPDH: WT +MG132, WT without MG132 = 1, Figure 5c
T1 construct: 3xFLAG (C); made in house; host or cells: Saccharomyces cerevisiae BY4741, genomic JHD2-3xFLAG::KAN
Procedure: (§2) To determine how Tpk2-mediated Jhd2 phosphorylation regulates Jhd2 stability, we treated WT Jhd2 and Jhd2-S321A, S340A cells with MG132, the proteasome inhibitor. […] We also examined Jhd2 in a temperature-sensitive proteasome-deficient mutant (cim3-1), which is defective in ATPase activity of 26 S proteasome.
as §1

[3] = target: T2, Jhd2-S321A, S340A (Saccharomyces cerevisiae, UniProt P47156, S321A/S340A); assay: Jhd2 protein level in Jhd2-S321A, S340A cells with MG132; format: cell-based, budding yeast (Saccharomyces cerevisiae); settings: for Jhd2/GAPDH: Jhd2-S321A,S340A +MG132, Figure 5c
T2 construct: 3xFLAG (C); made in house; host or cells: Saccharomyces cerevisiae BY4741, genomic JHD2 S321A S340A-3xFLAG
T2 sequence (P47156 whole entry S321A/S340A): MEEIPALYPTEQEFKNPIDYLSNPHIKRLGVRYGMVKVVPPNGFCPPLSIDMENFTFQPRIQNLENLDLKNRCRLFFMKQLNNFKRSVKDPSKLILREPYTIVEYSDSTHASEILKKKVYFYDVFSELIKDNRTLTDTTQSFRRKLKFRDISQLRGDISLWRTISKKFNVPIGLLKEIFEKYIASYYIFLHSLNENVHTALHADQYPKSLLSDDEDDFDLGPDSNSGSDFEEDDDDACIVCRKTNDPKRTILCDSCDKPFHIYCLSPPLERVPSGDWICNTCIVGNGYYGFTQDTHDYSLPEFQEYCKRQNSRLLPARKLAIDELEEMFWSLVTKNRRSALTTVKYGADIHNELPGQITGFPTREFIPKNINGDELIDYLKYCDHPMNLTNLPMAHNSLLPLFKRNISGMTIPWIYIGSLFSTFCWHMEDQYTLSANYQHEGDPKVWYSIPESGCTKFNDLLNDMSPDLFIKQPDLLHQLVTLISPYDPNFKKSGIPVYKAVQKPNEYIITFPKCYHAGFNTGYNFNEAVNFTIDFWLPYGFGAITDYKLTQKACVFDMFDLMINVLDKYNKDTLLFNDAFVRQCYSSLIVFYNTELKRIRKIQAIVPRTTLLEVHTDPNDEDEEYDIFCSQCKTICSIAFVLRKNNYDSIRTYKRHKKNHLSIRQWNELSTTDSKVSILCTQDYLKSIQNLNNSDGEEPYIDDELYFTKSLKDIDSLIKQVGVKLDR
Procedure: as §2, §1

[4] = target: Rpd3 (UniProt P32561); assay: in vivo co-IP, Western blot; settings: reference: WT Jhd2; sites S321,S340
[5] = target: histone H3 1-23 (UniProt P61830); assay: biotinylated peptide pull-down, Western blot; settings: reference: WT Jhd2; sites S321,S340
[6] = target: histone H3 1-23 (UniProt P61830); assay: biotinylated peptide pull-down, Western blot; settings: reference: WT Jhd2; sites S321,S340; remark: listed apart in the source
[7] = target: histone H3 1-23 (UniProt P61830); assay: biotinylated peptide pull-down, Western blot; settings: reference: WT Jhd2; sites S321,S340; remark: listed apart in the source
[8] = target: T3, Jhd2-FLAG (S. cerevisiae (budding yeast), UniProt P47156 1-728, phosphoserine at 321 and 340 (phosphorylated in vivo by Tpk2; extent not stated)); assay: co-IP; yeast whole cell extract digested with MNase, anti-FLAG M2 agarose 1 hr 4 °C, washed with 350 mM NaCl, 0.1% NP-40, Western blots; WT and tpk2Δ cells; settings: partners not purified
T3 construct: Jhd2, JmjC domain-containing H3K4 demethylase of budding yeast; tag integrated at the genomic locus; this is named in the assay format or readout; also called WT Jhd2; FLAG-purified Jhd2; not shown: FLAG, C-terminal, kept
T3 sequence (looked up): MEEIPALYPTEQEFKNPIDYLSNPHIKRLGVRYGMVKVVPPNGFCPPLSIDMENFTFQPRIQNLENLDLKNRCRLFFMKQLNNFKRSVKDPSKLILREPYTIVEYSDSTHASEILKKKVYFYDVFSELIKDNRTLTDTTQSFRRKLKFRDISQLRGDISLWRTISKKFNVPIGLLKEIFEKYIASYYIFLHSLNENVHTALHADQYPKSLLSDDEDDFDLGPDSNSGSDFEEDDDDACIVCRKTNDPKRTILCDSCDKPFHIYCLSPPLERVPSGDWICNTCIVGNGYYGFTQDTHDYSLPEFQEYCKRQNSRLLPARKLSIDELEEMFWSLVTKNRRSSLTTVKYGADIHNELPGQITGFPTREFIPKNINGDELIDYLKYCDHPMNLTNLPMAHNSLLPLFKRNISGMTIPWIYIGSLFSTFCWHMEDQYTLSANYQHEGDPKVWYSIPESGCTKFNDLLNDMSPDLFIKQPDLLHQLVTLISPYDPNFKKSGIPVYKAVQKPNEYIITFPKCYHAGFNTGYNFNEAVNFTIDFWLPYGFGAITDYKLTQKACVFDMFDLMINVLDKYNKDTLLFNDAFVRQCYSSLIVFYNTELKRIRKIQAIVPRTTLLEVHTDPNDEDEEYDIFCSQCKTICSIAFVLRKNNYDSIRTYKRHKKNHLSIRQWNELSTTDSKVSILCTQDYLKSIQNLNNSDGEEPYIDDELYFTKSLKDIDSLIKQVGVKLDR

[9] = target: T4, Tpk2-phosphorylated Jhd2-FLAG (S. cerevisiae (budding yeast), UniProt P47156 1-728, phosphoserine at 321 and 340 (by purified Tpk2 in vitro)); assay: co-IP; in vitro: dephosphorylated Jhd2 immobilized on anti-FLAG beads, incubated with or without purified Tpk2, Tpk2 removed, then incubated with purified Not4; settings: both partners purified
T4 construct: Jhd2 of budding yeast, phosphorylated in vitro by Tpk2 at S321 and S340; also called immobilized phosphorylated Jhd2; not shown: FLAG, C-terminal, kept
T4 sequence (looked up): T3 sequence (looked up)

**Q.** Which “H3K4me3 level after blocking glycolysis” value ([1]; 2-DG) does the source give for `O=CC[C@@H](O)[C@H](O)[C@H](O)CO` [2-DG, 2-Deoxy-D-glucose] here?
**A.** significantly reduced H3K4me3

**Q.** How did the “H3K4me3 level after FBP or pyruvate treatment” value [1] turn out when `O=C(COP(=O)(O)O)[C@@H](O)[C@H](O)[C@H](O)COP(=O)(O)O` [FBP, fructose-1,6-biphosphate] was run?
**A.** increased H3K4me3 in a dose-dependent manner

**Q.** Which “Jhd2 protein level, WT Jhd2” value ([2]; MG132, Western blot) does the source give for `CC(C)C[C@@H](C=O)NC(=O)[C@H](CC(C)C)NC(=O)[C@H](CC(C)C)NC(=O)OCc1ccccc1` [MG132] (Cbz-Leu-Leu-Leu-aldehyde) here?
**A.** significantly increased WT Jhd2 protein levels

**Q.** What about the Jhd2/GAPDH ([2]; replicate 1) of the same molecule?
**A.** 1.233

**Q.** And the Jhd2/GAPDH ([2]; replicate 2)?
**A.** 1.396

**Q.** And the Jhd2/GAPDH ([2]; replicate 3)?
**A.** 1.451

**Q.** What about the Jhd2/GAPDH ([2]; replicate 4) of the same molecule?
**A.** 1.135

**Q.** What about the Jhd2/GAPDH ([3]; WT without MG132 = 1, Jhd2-S321A,S340A without MG132 = 1.51305, replicate 4) of the same molecule?
**A.** 2.104

**Q.** What about the Jhd2/GAPDH ([3]; WT without MG132 = 1, Jhd2-S321A,S340A without MG132 = 1.6488, replicate 2) of the same molecule?
**A.** 1.451

**Q.** What about the Jhd2/GAPDH ([3]; WT without MG132 = 1, Jhd2-S321A,S340A without MG132 = 1.64948, replicate 1) of the same molecule?
**A.** 1.2682

**Q.** And the Jhd2/GAPDH ([3]; WT without MG132 = 1, Jhd2-S321A,S340A without MG132 = 1.95118, replicate 3)?
**A.** 2.131

**Q.** And the “Jhd2 protein level, Jhd2-S321A, S340A” value ([3]; MG132, Western blot)?
**A.** had no significant effect on Jhd2-S321A, S340A protein level

**Q.** For `CC(=O)C(=O)O` [pyruvate], which “H3K4me3 level after FBP or pyruvate treatment” value [1] is on record?
**A.** FBP but not pyruvate treatment increased H3K4me3

**Q.** With “Jhd2 (from UniProt P47156) Jhd2-S321A, S340A” as the molecule, how does the “binding against the reference” value [4] read?
**A.** stronger

**Q.** What about the “binding against the reference” value [5] of the same molecule?
**A.** stronger

**Q.** And the “binding against the reference” value [6]?
**A.** stronger

**Q.** What about the “binding against the reference” value [7] of the same molecule?
**A.** stronger

B1: Not4 (enzyme, S. cerevisiae (budding yeast), UniProt P34909 1-587, looked up)
chain: MMNPHVQENLQAIHNALSNFDTSFLSEDEEDYCPLCIEPMDITDKNFFPCPCGYQICQFCYNNIRQNPELNGRCPACRRKYDDENVRYVTLSPEELKMERAKLARKEKERKHREKERKENEYTNRKHLSGTRVIQKNLVYVVGINPPVPYEEVAPTLKSEKYFGQYGKINKIVVNRKTPHSNNTTSEHYHHHSPGYGVYITFGSKDDAARCIAQVDGTYMDGRLIKAAYGTTKYCSSYLRGLPCPNPNCMFLHEPGEEADSFNKRELHNKQQAQQQSGGTAFTRSGIHNNISTSTAGSNTNLLSENFTGTPSPAAMRAQLHHDSHTNAGTPVLTPAPVPAGSNPWGVTQSATPVTSINLSKNSSSINLPTLNDSLGHHTTPTTENTITSTTTTTNTNATSHSHGSKKKQSLAAEEYKDPYDALGNAVDFLDARLHSLSNYQKRPISIKSNIIDEETYKKYPSLFSWDKIEASKKSDNTLANKLVEILAIKPIDYTASVVQFLQSVNVGVNDNITITDNTKTPTQPIRLQTVSQQIQPPLNVSTPPPGIFGPQHKVPIQQQQMGDTSSRNSSDLLNQLINGRKIIAGN
notes: Not4, E3 ubiquitin ligase of budding yeast; also called purified Not4; source: S. cerevisiae
**Q.** Does B1 bind [8]?
**A.** binds

**Q.** Does B1 bind [9]?
**A.** binds
